For experiment [1], the system named is NCI60 tumor cell line panel. In words: NCI60 five-dose screen, mean over panel. It is filed as cell-based, human. An excerpt: (§1) The concentration−response curve generated enables the determination of three criteria, GI50 (drug concentration at which 50% of cell growth is inhibited), total growth inhibition (TGI) and LC50 (drug concentration at which 50% of tumor cells are killed) which can be used to compare effectiveness against any compound tested in the screen since its inception.
(§2) S2.1 NCI Screening Assay Experimental details
(§3) NCI Screening Assay Experimental: Cancer cell growth assays (NCI60 screening) 5,6 One-dose study: Tested compounds were initially solubilised in DMSO, diluted into RPMI 1640 and 5% fetal bovine serum/L-glutamine, and added to 96-well plates containing cell lines previously cultured for 24 h. After 48 h incubation, the media were removed, and the cells were fixed and stained with sulforhodamine B to determine overall percent growth/ total protein content. Unbound dye was removed with five washes of 1% acetic acid, and the plates were allowed to air dry. The dye was then resolubilised in Tris buffer, and the colorimetric absorbance was measured (515 nm). Growth inhibition was measured relative to the response generated from proliferating cells cultured under identical conditions for 48 h. Data from one-dose experiments pertains to the percentage growth at […]
(§4) Five-dose study: Serial 5 × 10-fold dilution from an initial DMSO stock solution was performed, prior to incubation at each individual concentration (10 nM, 100 nM, 1 μM, 10 μM and 100 μM). Using seven absorbance measurements (time zero (Tz), control growth (C), and test growth in the presence of drug at the five concentration levels (Ti)), the percentage growth was calculated at each of the drug concentrations levels. Percentage growth inhibition was calculated as: [(Ti − Tz)/(C − Tz)] × 100 for concentrations for which Ti ≥ Tz, [(Ti − Tz)/Tz] × 100 for concentrations for which Ti < Tz. Three dose response parameters were calculated for each experimental agent. […]
(§5) was calculated from [(Ti − Tz)/(C − Tz)] × 100 = 50, which is the drug concentration resulting in a 50% reduction in the net protein increase (as measured by sulforhodamine B staining) in control cells during the drug incubation. The drug concentration resulting in total growth inhibition (TGI) was calculated from Ti = Tz. The LC50 (concentration of drug resulting in a 50% reduction in the measured protein at the end of the drug treatment as compared to that at the beginning) indicating a net loss of cells following treatment was calculated from [(Ti − Tz)/Tz] × 100 = −50. Values were calculated for each of these three parameters if the level of activity was reached; however, if the effect was not reached or was exceeded, the value for that parameter was expressed as greater or less than the maximum or minimum concentration tested.

For experiment [2], the system named is NCI-H460. The experiment in a line: NCI60 five-dose GI50 (NCI data). It counts as cell-based. The note with it: Homo sapiens, NCI data provided for comparison, read-out: NSCLC NCI-H460 GI50 (NCI).
Source text: as §1, §2, §3, §4, §5

In experiment [3] the test system is NCI-H460/R. In words: SRB cell growth inhibition assay. It counts as cell-based, human. The note with it: for selectivity ratio NSCLC: GI50 sensitive NCI-H460 / GI50 MDR NCI-H460/R; for GI50: Homo sapiens, NCI-H460, 48 h, NSCLC MDR, mean ± SEM; for GI50 / GI50 concentration range against MDR NCI-H460/R: SRB assay; for GI50 concentration range against MDR NCI-H460/R: in words. How it is done:
Two distinct pairs of counterpart drug-sensitive and MDR human tumor cell lines were used, namely the non-small lung cancer (NSCLC) NCI-H460 (same cell line as in the NCI screen) and its MDR counterpart cell line NCI-[…] and the colorectal cancer DLD1 and its MDR counterpart cell line DLD1-TxR (Table 3). The screening was performed using the SRB assay, and the GI50 for each compound was determined by interpolation on the attained concentration-response curves and compared with NCI60 screening data (SI, Figures S62-S63; Table S21). Two pairs of drug-sensitive and multidrug-resistant (MDR) cell lines from human nonsmall cell lung cancer (NSCLC), NCI-H460 and NCI-[…], and colorectal cancer, DLD1 and DLD1-TxR, kindly provided by Dr M. […] The A549 cell line was maintained in Dulbecco's Modified Eagle Medium (DMEM) supplemented with 4.5 g/L Glucose with UltraGlutamine with sodium pyruvate (Lonza, Basel Stücki, Switzerland), enriched with 10% fetal bovine serum (FBS; Biowest, Nuaillé, France). […] For the sulforhodamine B (SRB) and 3D cell culture assays, the media were supplemented with 5% FBS. The remaining experiments were performed with medium supplemented with 10% FBS. […] The SRB assay was performed as previously described.[78],[79] Briefly, after fixing cells with 10% (w/v) ice-cold trichloroacetic acid (Merck Life Science), the proteins were stained with 0.4% of SRB (Merck Life Science) in acetic acid (Merck Life Science). Following washing steps in acetic acid, the bound dye was solubilized with 10 mM Tris base solution (Merck Life Science). Absorbance was measured at 510 nm in a multiplate reader (Synergy Mx, Biotek Instruments Inc., Winooski, Vermont, USA) using the Gen5 software (Biotek Instruments Inc.).

Experiment [4] relates to OVCAR-8. The experiment in a line: NCI60 five-dose GI50. It counts as cell-based. The note with it: Homo sapiens, ovarian.
Source text: as §1, §2
as §3, with “nm).” for “nm). Growth inhibition was measured relative to the response generated from proliferating cells cultured under identical conditions for 48 h. Data from one-dose experiments pertains to the percentage growth at”
as §4, §5

The test system of experiment [5] is NCI60 tumor cell line panel. The experiment in a line: NCI60 one-dose screen (10 μM), mean growth. It is filed as cell-based, human. The note with it: 48 h, one dose 10 μM, mean cell growth of 60 tumor cell lines; for activity at 10 µM: Homo sapiens. How it is done: as §2
as §3, with “h.” for “h. Data from one-dose experiments pertains to the percentage growth at”

Setting [6] is: Homo sapiens, five dose, across 57-60 cell lines (number given per compound), read-out: Mean of GI50 as Log 10 Concentration (SD) (converted).
The mark [7] stands for this setting: five dose, mean over 52 human tumor cell lines common to all analogues, read-out: mean GI50.

Where two headings read alike, the source gives them in different places.

In the case of `COC(=O)c1c2c(c(C)[n+]([O-])c1C)C(=O)C=C(NCc1ccccc1)C2=O` [Compound 2], in experiment [1] (2 versus 1), the “fold more potent average GI50 than 1” value was found to be 2.8 fold. In addition, in experiment [2], the GI50 is 2740 nM. Besides, in experiment [3], the “selectivity ratio NSCLC” value is reported as 1.7, the GI50 is 830 ± 20 nM and the “GI50 concentration range against MDR NCI-H460/R” value (“GI50 concentration range” for short) is listed as “nanomolar range”.

For the compound `COC(=O)c1c2c(c(C)[n+]([O-])c1C)C(=O)C(NCc1ccc(F)cc1)=CC2=O` [Compound 4], the GI50 in experiment [1] (setting [6]) was 1410 nM; in experiment [1] (setting [7]), 1540 nM; in experiment [2], 792 nM; in experiment [3], 2250 ± 270 nM; in experiment [4], 1590 nM. The “selectivity ratio NSCLC” value in experiment [3] came to 1.2. Also, in experiment [5], the activity at 10 µM stood at 18%.

As for `COC(=O)c1c2c(c(C)[n+]([O-])c1C)C(=O)C=C(NCc1ccc(F)cc1)C2=O` [Compound 5], the GI50 was 583 nM in experiment [1] (setting [6]); 760 nM in experiment [1] (setting [7]); 525 nM in experiment [2]; 360 ± 110 nM in experiment [3]; 406 nM in experiment [4]. Moreover, in experiment [3], the “selectivity ratio NSCLC” value was determined as 1.6. Further, the “GI50 concentration range” value in experiment [3] is listed as “nanomolar range”. The activity at 10 µM in experiment [5] is -37%. Besides, in experiment [5], the “mean growth (%, 10 μM)” value was -37%.

`COC(=O)c1c2c(c(C)[n+]([O-])c1C)C(=O)C(NCc1ccc(O)cc1)=CC2=O` [Compound 20]: the GI50 in experiment [1] (setting [6]) was 1310 nM; in experiment [1] (setting [7]), 1580 nM; in experiment [2], 1580 nM; in experiment [3] it was 4840 ± 740 nM; in experiment [4], 1080 nM. For the same compound, in experiment [3], the “selectivity ratio NSCLC” value stood at 1.2. Further, the activity at 10 µM in experiment [5] is -21%. For the same compound, the “mean growth (%, 10 μM)” value in experiment [5] is given as -21%.

For `COC(=O)c1c2c(c[n+]([O-])c1C)C(=O)C=CC2=O` [Compound 23], the GI50 was 2490 nM in experiment [1] (setting [6]); 2150 nM in experiment [1] (setting [7]); 12800 nM in experiment [2]; 17900 ± 3360 nM in experiment [3]; 2930 nM in experiment [4]. Besides, in experiment [3], the “selectivity ratio NSCLC” value is reported as 2.1. In addition, in experiment [5], the activity at 10 µM was found to be 44.5%.

For the compound `COC(=O)c1c2c(c[n+]([O-])c1C)C(=O)C(NCc1ccccc1)=CC2=O` [Compound 24], the GI50 in experiment [1] (setting [6]) was 579 nM; in experiment [1] (setting [7]), 690 nM; in experiment [2], 383 nM; in experiment [3], 380 ± 20 nM; in experiment [4], 320 nM. Also, the “selectivity ratio NSCLC” value in experiment [3] is 2. Further, the “GI50 concentration range” value in experiment [3] is “nanomolar range”. Also, in experiment [5], the activity at 10 µM was -35.1%. Besides, the “mean growth (%, 10 μM)” value in experiment [5] is -35.1%.

`COC(=O)c1c2c(c[n+]([O-])c1C)C(=O)C=C(NCc1ccccc1)C2=O` [Compound 25]: the GI50 in experiment [1] (setting [6]) was 190 nM; in experiment [1] (setting [7]), 210 nM; in experiment [2], 210 nM; in experiment [3] it was 340 ± 30 nM; in experiment [4] it was 240 nM. Also, the “share of FDA approved anticancer agents outperformed in mean LC50” value in experiment [1] (comparison with ref 45) was 86%. For the same compound, the “share of FDA approved anticancer agents with higher mean GI50” value in experiment [1] (comparison with ref 45) is listed as 83%. Besides, the “cell lines with ≤200 nM GI50” value in experiment [1] (five dose, number of cell lines out of 60) is given as 31/60. Moreover, the “selectivity ratio NSCLC” value in experiment [3] amounted to 1. Moreover, the “GI50 concentration range” value in experiment [3] was “nanomolar range”.

For `COc1cccc2c1C(=O)c1c(O)c3c(c(O)c1C2=O)C[C@@](O)(C(=O)CO)C[C@@H]3O[C@H]1C[C@H](N)[C@H](O)[C@H](C)O1` [doxorubicin, reference compound], the GI50 in experiment [3] amounted to 2460 ± 40 nM.
